Test results as given in patent US11667634B2, “Inhibitors of RAF kinases” (Kinnate Biopharma Inc., priority 2019, dated 2023).

Target: human RAF1 (Homo sapiens (Human), UniProt P04049)
Assay: Protein kinase assay (radiometric 33P-ATP, MEK1 (K97R) substrate)
Assay type: biochemical
Details: substrate human MEK1 (K97R) 3 micromolar, ATP 10 micromolar, 3-fold dilution from 10 micromolar, read-out: RAF-1 IC50
Protocol: Protein kinase assay: Assay platform was used to measure kinase/inhibitor interactions as described previously (Anastassiadis et al., 2011). In brief, for each reaction, kinase and substrate were mixed in a buffer containing 20 mM HEPES (pH 7.5), 10 mM MgCl2, 1 mM EGTA, 0.02% Brij35, 0.02 mg/mL BSA, 0.1 mM Na3VO4, 2 mM DTT, and 1% DMSO. All compounds were solubilized in DMSO. Compounds were then added to each reaction mixture via acoustic dispense using an ECHO 550 nanoliter dispenser. For human RAF1 testing, human MEK1 (K97R) was used as a substrate at a concentration of 3 micromolar, with a final ATP concentration of 10 micromolar. For human BRAF testing, human MEK1 (K97R) was used as a substrate at 1 micromolar concentration, with a final ATP concentration of 25 micromolar. […] After a 20-min incubation, ATP (Sigma-Aldrich, St. Louis, Mo. 63178) and [g33P] ATP (specific activity 10 microCi/microliter) purchased at PerkinElmer (Boston, Mass., 02118 Cat #BLU 003H250UC) were added at a final total concentration of 10 mM. Reactions were carried out at room temperature for 2 hr and spotted onto P81 ion exchange cellulose chromatography paper (Reaction Biology). Filter paper was washed in 0.75% phosphoric acid to remove unincorporated ATP. The percent remaining kinase activity relative to a vehicle-containing (DMSO) kinase reaction was calculated for each kinase/inhibitor pair. IC50 values were calculated using Prism 5 (GraphPad).

Sequence of human RAF1 (P04049 whole entry): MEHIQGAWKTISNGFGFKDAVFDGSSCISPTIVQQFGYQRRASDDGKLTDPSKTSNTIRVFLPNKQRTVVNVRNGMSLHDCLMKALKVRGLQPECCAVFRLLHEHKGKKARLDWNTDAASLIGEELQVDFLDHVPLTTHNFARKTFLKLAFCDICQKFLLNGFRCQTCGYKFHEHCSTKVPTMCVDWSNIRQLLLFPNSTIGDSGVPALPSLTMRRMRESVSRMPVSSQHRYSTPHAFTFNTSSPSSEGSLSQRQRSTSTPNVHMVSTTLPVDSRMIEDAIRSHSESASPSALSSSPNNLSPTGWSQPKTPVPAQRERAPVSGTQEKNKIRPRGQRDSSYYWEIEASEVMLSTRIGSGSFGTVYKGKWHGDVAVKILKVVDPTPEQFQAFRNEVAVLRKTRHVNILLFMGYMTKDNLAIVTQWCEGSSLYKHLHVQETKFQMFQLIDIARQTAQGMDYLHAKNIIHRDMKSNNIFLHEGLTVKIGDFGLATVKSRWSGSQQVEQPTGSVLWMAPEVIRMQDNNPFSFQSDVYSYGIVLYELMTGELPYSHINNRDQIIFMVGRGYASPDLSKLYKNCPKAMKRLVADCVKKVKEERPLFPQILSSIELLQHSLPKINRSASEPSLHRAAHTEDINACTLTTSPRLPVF

Compound	IC50 [nM]
CNc1ncc2cc(-c3cc(NC(=O)N4CC[C@H](OC(F)F)C4)c(F)cc3C)cnc2n1 [Example 28, (S)-3-(difluoromethoxy)-N-(2-fluoro-4-methyl-5-(2-(methylamino)pyrido[2,3-d]pyrimidin-6-yl)phenyl)pyrrolidine-1-carboxamide]	≤ 10
C#Cc1nc2nc(NC)ncc2cc1-c1cc(NC(=O)c2ccnc(C(F)(F)F)c2)ccc1C [Example 67, N-[3-[7-ethynyl-2-(methylamino)pyrido[2,3-d]pyrimidin-6-yl]-4-methylphenyl]-2-(trifluoromethyl)pyridine-4-carboxamide]	≤ 10
CNc1ncc2cc(-c3cc(NC(=O)N4CCOC(C(F)(F)F)C4)ccc3C)cnc2n1 (stereo in doubt) [Example 58, (2S)-N-[4-methyl-3-2-(methylamino)pyrido[2,3-d]pyrimidin-6-yl]phenyl]-2-(trifluoromethyl)morpholine-4-carboxamide]	≤ 10
